# Experimental data as given in US20250248973A1, “CANNABINOID RECEPTOR 1 ANTAGONISTS/INVERSE AGONISTS AND USES THEREOF” (Corbus Pharmaceuticals, Inc., priority 2022, published 2025).
# Legend:
# [1] = molecular target: Human CB1 Receptor-1b (hCB1b) (Homo sapiens (Human), UniProt P21554); experiment: hCB1b Gai cyclic AMP (cAMP) TR-FRET assay, antagonism of EC80 CP55940 with forskolin; format: cell-based; details: hCB1b cells, 30 min pre-incubation, read-out: CB1b IC50
# Protocol: (§1) Example 3. Biochemical Methods Human CB1 Receptor-1 (hCB1) and Human CB1 Receptor-1b (hCBib)
# (§2) hCB1/hCB1 b Gai Cyclic AMP (cAMP) Assays: Cells were seeded in a 384-well plate at an appropriate density from frozen cells. The cAMP assays were performed according to the manufacturer's protocol using MULTISCREEN™ TR-FRET cAMP 1.0 No Wash Assay Kit. Cells (hCB1 or hCB1 b) were pre-incubated with customer compounds for 30 minutes at rt followed by addition of EC80 CP55940 concentration and Forskolin. Cells were then incubated for 20 minutes at 37C. The reaction was terminated by sequentially adding sequentially adding MULTISCREEN™ Eu-labeled cAMP and MULTISCREEN™ 650-labeled anti-cAMP antibody in lysis buffer. The plate was then incubated at rt for 30 minutes before reading fluorescent emissions at 620 nm and 665 with excitation at 314 nm on FlexStation III (Molecular Devices). The results are shown in Table 2 (“***” denotes an IC50<100 nM; “**” denotes an IC50 between 100 nM and 500 nM, and “*” denotes an IC50>500 nM).
# [2] = molecular target: Human CB1 Receptor-1 (hCB1) (Homo sapiens (Human), UniProt P21554); experiment: hCB1 Gai cyclic AMP (cAMP) TR-FRET assay, antagonism of EC80 CP55940 with forskolin; format: cell-based; details: hCB1 cells, 30 min pre-incubation
# Protocol: as §1, §2
# Chain of Human CB1 Receptor-1b (hCB1b) (P21554 other isoform, or with tags, fused parts or gaps): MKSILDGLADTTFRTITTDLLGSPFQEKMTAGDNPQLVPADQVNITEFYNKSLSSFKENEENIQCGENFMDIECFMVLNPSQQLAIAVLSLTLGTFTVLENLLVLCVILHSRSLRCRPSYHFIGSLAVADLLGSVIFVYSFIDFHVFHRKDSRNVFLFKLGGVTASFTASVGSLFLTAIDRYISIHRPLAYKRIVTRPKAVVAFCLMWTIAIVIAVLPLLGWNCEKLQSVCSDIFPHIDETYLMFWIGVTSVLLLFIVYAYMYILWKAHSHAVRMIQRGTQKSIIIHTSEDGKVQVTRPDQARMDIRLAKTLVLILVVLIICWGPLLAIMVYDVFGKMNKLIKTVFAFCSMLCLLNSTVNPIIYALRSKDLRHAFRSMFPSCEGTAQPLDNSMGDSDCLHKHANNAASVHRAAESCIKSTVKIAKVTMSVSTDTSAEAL
# Chain of Human CB1 Receptor-1 (hCB1) (P21554 whole entry): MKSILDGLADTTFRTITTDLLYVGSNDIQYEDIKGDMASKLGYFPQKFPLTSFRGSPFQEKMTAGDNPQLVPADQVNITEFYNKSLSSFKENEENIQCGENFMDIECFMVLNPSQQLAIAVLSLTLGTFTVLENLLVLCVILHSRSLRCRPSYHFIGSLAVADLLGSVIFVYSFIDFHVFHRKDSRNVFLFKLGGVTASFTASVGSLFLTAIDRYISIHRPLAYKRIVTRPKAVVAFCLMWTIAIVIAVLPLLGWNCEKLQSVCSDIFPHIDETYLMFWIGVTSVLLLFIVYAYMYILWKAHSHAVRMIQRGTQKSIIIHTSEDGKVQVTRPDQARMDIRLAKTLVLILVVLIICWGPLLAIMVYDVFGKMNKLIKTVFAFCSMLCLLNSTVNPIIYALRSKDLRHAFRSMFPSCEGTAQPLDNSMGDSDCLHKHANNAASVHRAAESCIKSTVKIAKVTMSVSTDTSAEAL
Compound,IC50 [1] [nM],IC50 [2] [nM]
"NS(=O)(=O)CCNC(=NS(=O)(=O)c1ccc(F)cc1)N1C[C@H](c2ccccc2)C(c2ccc(F)cc2)=N1 [Compound 51, (S)-3-(4-fluorophenyl)-N′-((4-fluorophenyl)sulfonyl)-4-phenyl-N-(2-sulfamoylethyl)-4,5-dihydro-1H-pyrazole-1-carboximidamide]",100 to 500,100 to 500
"NS(=O)(=O)[C@@H]1CC[C@@H](N/C(=N/S(=O)(=O)c2ccc(Cl)cc2)N2C[C@H](c3ccccc3)C(c3ccc(Cl)cc3)=N2)C1 (single isomer, unassigned) [Compound 141]",100 to 500,100 to 500
"C[C@H](CN/C(=N\S(=O)(=O)c1ccc(Cl)cc1)N1C[C@H](c2ccccc2)C(c2ccc(Cl)cc2)=N1)S(N)(=O)=O [Compound 5, (S,E)-3-(4-chlorophenyl)-N′-((4-chlorophenyl)sulfonyl)-4-phenyl-N-((R)-2-sulfamoylpropyl)-4,5-dihydro-1H-pyrazole-1-carboximidamide]",100 to 500,< 100
"NS(=O)(=O)CCN/C(=N\S(=O)(=O)c1ccc(F)cc1)N1C[C@H](c2ccccc2)C(c2ccc(Cl)cc2)=N1 [Compound 11, (S,E)-3-(4-chlorophenyl)-N′-((4-fluorophenyl)sulfonyl)-4-phenyl-N-(2-sulfamoylethyl)-4,5-dihydro-1H-pyrazole-1-carboximidamide]",< 100,< 100
"CN(CCNC(=NS(=O)(=O)c1ccc(Cl)cc1)N1C[C@H](c2ccccc2)C(c2ccc(Cl)cc2)=N1)S(N)(=O)=O [Compound 187, (S,E)-3-(4-chlorophenyl)-N′-((4-chlorophenyl)sulfonyl)-N-(2-(methyl(sulfamoyl)amino)ethyl)-4-phenyl-4,5-dihydro-1H-pyrazole-1-carboximidamide]",100 to 500,100 to 500
"CN(C)S(=O)(=O)CCN/C(=N\S(=O)(=O)c1ccc(F)cc1)N1C[C@H](c2ccccc2)C(c2ccc(F)cc2)=N1 [Compound 167, (S,E)-N-(2-(N,N-dimethylsulfamoyl)ethyl)-3-(4-fluorophenyl)-N′-((4-fluorophenyl)sulfonyl)-4-phenyl-4,5-dihydro-1H-pyrazole-1-carboximidamide]",< 100,< 100
"NS(=O)(=O)N1CC(N/C(=N\S(=O)(=O)c2ccc(Cl)cc2)N2C[C@H](c3ccccc3)C(c3ccc(Cl)cc3)=N2)C1 [Compound 191, (S,E)-3-(4-chlorophenyl)-N′-((4-chlorophenyl)sulfonyl)-4-phenyl-N-(1-sulfamoylazetidin-3-yl)-4,5-dihydro-1H-pyrazole-1-carboximidamide]",< 100,< 100
"CNS(=O)(=O)CCN/C(=N\S(=O)(=O)c1ccc(Cl)cc1)N1C[C@H](c2ccccc2)C(c2ccc(Cl)cc2)=N1 [Compound 169, (S,E)-3-(4-chlorophenyl)-N′-((4-chlorophenyl)sulfonyl)-N-(2-(N-methylsulfamoyl)ethyl)-4-phenyl-4,5-dihydro-1H-pyrazole-1-carboximidamide]",< 100,< 100
"CN1CCN(S(=O)(=O)CCN/C(=N\S(=O)(=O)c2ccc(Cl)cc2)N2C[C@H](c3ccccc3)C(c3ccc(Cl)cc3)=N2)CC1 [Compound 157, (S,E)-3-(4-chlorophenyl)-N′-((4-chlorophenyl)sulfonyl)-N-(2-((4-methylpiperazin-1-yl)sulfonyl)ethyl)-4-phenyl-4,5-dihydro-1H-pyrazole-1-carboximidamide]",100 to 500,< 100
"NS(=O)(=O)[C@H]1CC[C@H](N/C(=N/S(=O)(=O)c2ccc(Cl)cc2)N2C[C@H](c3ccccc3)C(c3ccc(Cl)cc3)=N2)C1 (single isomer, unassigned) [Compound 139]",100 to 500,100 to 500
"CN(C)S(=O)(=O)CCN/C(=N\S(=O)(=O)c1ccc(Cl)cc1)N1C[C@H](c2ccccc2)C(c2ccc(Cl)cc2)=N1 [Compound 155, (S,E)-3-(4-chlorophenyl)-N′-((4-chlorophenyl)sulfonyl)-N-(2-(N,N-dimethylsulfamoyl)ethyl)-4-phenyl-4,5-dihydro-1H-pyrazole-1-carboximidamide]",< 100,< 100
"C[C@@H](CN/C(=N\S(=O)(=O)c1ccc(C(F)(F)F)cc1)N1C[C@H](c2ccccc2)C(c2ccc(F)cc2)=N1)S(N)(=O)=O (single isomer, unassigned) [Compound 48]",< 100,< 100
"C[C@@H](CS(N)(=O)=O)N/C(=N\S(=O)(=O)c1ccc(C(F)(F)F)cc1)N1C[C@@H](c2ccccc2)C(c2ccc(Cl)cc2)=N1 [Compound 26, (R,E)-3-(4-chlorophenyl)-4-phenyl-N-((S)-1-sulfamoylpropan-2-yl)-N′-((4-(trifluoromethyl)phenyl)sulfonyl)-4,5-dihydro-1H-pyrazole-1-carboximidamide]",100 to 500,< 100
"NS(=O)(=O)C1CCN(/C(=N/S(=O)(=O)c2ccc(Cl)cc2)N2C[C@H](c3ccccc3)C(c3ccc(F)cc3)=N2)CC1 [Compound 111, (S,Z)-1-((((4-chlorophenyl)sulfonyl)imino)(3-(4-fluorophenyl)-4-phenyl-4,5-dihydro-1H-pyrazol-1-yl)methyl)piperidine-4-sulfonamide]",> 500,> 500
"C[C@H](CN/C(=N\S(=O)(=O)c1ccc(C(F)(F)F)cc1)N1C[C@H](c2ccccc2)C(c2ccc(Cl)cc2)=N1)S(N)(=O)=O [Compound 17, (S,E)-3-(4-chlorophenyl)-4-phenyl-N-((R)-2-sulfamoylpropyl)-N′-((4-(trifluoromethyl)phenyl)sulfonyl)-4,5-dihydro-1H-pyrazole-1-carboximidamide]",> 500,< 100
"NS(=O)(=O)[C@@H]1CC[C@H](N/C(=N/S(=O)(=O)c2ccc(Cl)cc2)N2C[C@H](c3ccccc3)C(c3ccc(F)cc3)=N2)C1 [Compound 149, (S,Z)-N′-((4-chlorophenyl)sulfonyl)-3-(4-fluorophenyl)-4-phenyl-N-((1S,3R)-3-sulfamoylcyclopentyl)-4,5-dihydro-1H-pyrazole-1-carboximidamide]",100 to 500,100 to 500
"NS(=O)(=O)[C@H]1CC[C@@H](N/C(=N/S(=O)(=O)c2ccc(Cl)cc2)N2C[C@H](c3ccccc3)C(c3ccc(Cl)cc3)=N2)C1 (single isomer, unassigned) [Compound 145]",100 to 500,100 to 500
"NS(=O)(=O)CCNC(=NS(=O)(=O)c1cccc(Cl)c1)N1C[C@H](c2ccccc2)C(c2ccc(Cl)cc2)=N1 [Compound 31, (S)-3-(4-chlorophenyl)-N′-((3-chlorophenyl)sulfonyl)-4-phenyl-N-(2-sulfamoylethyl)-4,5-dihydro-1H-pyrazole-1-carboximidamide]",< 100,< 100
"NS(=O)(=O)N1CC[C@@H](N/C(=N/S(=O)(=O)c2ccc(Cl)cc2)N2C[C@H](c3ccccc3)C(c3ccc(Cl)cc3)=N2)C1 [Compound 247, (S,Z)-3-(4-chlorophenyl)-N′-((4-chlorophenyl)sulfonyl)-4-phenyl-N-((R)-1-sulfamoylpyrrolidin-3-yl)-4,5-dihydro-1H-pyrazole-1-carboximidamide]",< 100,100 to 500
"NS(=O)(=O)CCN/C(=N\S(=O)(=O)c1ccc(C(F)(F)F)cc1)N1C[C@H](c2ccccc2)C(c2ccc(F)cc2)=N1 [Compound 43, (S,E)-3-(4-fluorophenyl)-4-phenyl-N-(2-sulfamoylethyl)-N′-((4-(trifluoromethyl)phenyl)sulfonyl)-4,5-dihydro-1H-pyrazole-1-carboximidamide]",< 100,< 100
"C[C@H](CS(N)(=O)=O)N/C(=N\S(=O)(=O)c1ccc(Cl)cc1)N1CC(c2ccccc2)C(c2ccc(Cl)cc2)=N1 (stereo in doubt) [Compound 3, (R,E)-3-(4-chlorophenyl)-N′-((4-chlorophenyl)sulfonyl)-4-phenyl-N-((R)-1-sulfamoylpropan-2-yl)-4,5-dihydro-1H-pyrazole-1-carboximidamide]",100 to 500,> 500
"C[C@@H](CN/C(=N\S(=O)(=O)c1ccc(F)cc1)N1C[C@H](c2ccccc2)C(c2ccc(Cl)cc2)=N1)S(N)(=O)=O [Compound 13, (S,E)-3-(4-chlorophenyl)-N′-((4-fluorophenyl)sulfonyl)-4-phenyl-N-((S)-2-sulfamoylpropyl)-4,5-dihydro-1H-pyrazole-1-carboximidamide]",< 100,< 100
"NS(=O)(=O)N[C@H]1C[C@H](N/C(=N\S(=O)(=O)c2ccc(Cl)cc2)N2C[C@H](c3ccccc3)C(c3ccc(Cl)cc3)=N2)C1 (single isomer, unassigned) [Compound 241]",< 100,100 to 500
"NS(=O)(=O)[C@H]1CC[C@@H](N/C(=N/S(=O)(=O)c2ccc(Cl)cc2)N2C[C@H](c3ccccc3)C(c3ccc(F)cc3)=N2)CC1 (single isomer, unassigned) [Compound 123]",> 500,> 500
"NS(=O)(=O)[C@H]1CC[C@H](N/C(=N/S(=O)(=O)c2ccc(Cl)cc2)N2C[C@@H](c3ccccc3)C(c3ccc(Cl)cc3)=N2)CC1 (single isomer, unassigned) [Compound 122]",100 to 500,100 to 500
